How the values were obtained:
[1] = tested on: fibromyalgia patients; assay: Case reports: fibromyalgia, drugs combined with MR treatment; assay type: in vivo, human
Experimental: In one example, a person experienced fibromyalgia for a number of years. The subject also experienced insomnia, restless legs, and chronic fatigue. The subject took the drug Naproxen (Aleve). The subject received seven consecutive days of 1 to 1.5 hour treatments.
Their primary complaint was back pain. […] The subject received thirteen treatments within a two-month period. […] Approximately two months after completing their first series of treatment, they began a second regimen of ten treatments within a two-month period.
In a further example, a person at least fifty years old suffered from fibromyalgia for a number of years. […] The subject received daily (when possible) treatments for approximately one year.

[2] = tested on: migraine and headache patients; assay: Case reports: migraine and headache drugs combined with MR treatment; assay type: in vivo, human; conditions: for results on migraines / pain level before being resonated / reduction in pain level: person with migraines taking the drugs; for results on migraines: resonated ten times, 1 to 1.5 hours, over one month; for pain level before being resonated / pain level after treatment: scale of zero to ten; for reduction in pain level: two one-hour MR treatments three months apart; for pain level after treatment: same subject, after ten MR treatments over one month
Experimental: The subject was resonated ten times for 1 to 1.5 hours per treatment over a one-month period.
In another example, a person experienced pain associated with migraines. […] The subject received two one-hour treatments three months apart.
In a further example, a person experienced pain associated with severe headaches. The subject took Aspirin to treat the pain. The subject received one treatment for one hour.

[3] = tested on: Parkinson's patient; assay: Onset of dyskinesias after Levodopa, with and without magnetic resonance (MR) treatment; assay type: in vivo, human; conditions: for % Improved: MR result vs baseline; for MR Result Onset of Dyskinesias: MR whole body immersion (7′)
Experimental: Subsequently, the selected magnetic resonance treatment regimen may be transmitted from the MR system server 160 to the client computer 120. The operator 138 then may carry out the treatment regimen upon the subject 150 according to the recommended treatment regimen. For example, the recommended magnetic resonance treatment regimen may specify a certain number and frequency of treatment events, wherein for each treatment an amount of a certain substance is administered to the body of the subject, and the subject is then resonated with electromagnetic energy of a certain flux density and certain frequency for a certain amount of time. Subsequent to each magnetic resonance treatment, all related data is updated locally at the client computer 120 and/or remotely at the MR system server 160.

[4] = tested on: Parkinson's patient; assay: Average off time of Levodopa, baseline versus MR treatment; assay type: in vivo, human; conditions: for % Improved: MR result vs baseline
Source text: In the example of Table 1, the MR analysis algorithm 166 has performed a query, for example, on the terms “Indication=Parkinson's” in combination with “Substance=Levodopa,” in order to produce one or more records of one or more subjects of one or more treatment events. Subsequently, the selected magnetic resonance treatment regimen may be transmitted from the MR system server 160 to the client computer 120. The operator 138 then may carry out the treatment regimen upon the subject 150 according to the recommended treatment regimen. For example, the recommended magnetic resonance treatment regimen may specify a certain number and frequency of treatment events, wherein for each treatment an amount of a certain substance is administered to the body of the subject, and the subject is then resonated with electromagnetic energy of a certain flux density and certain frequency for a certain amount of time. Subsequent to each magnetic resonance treatment, all related data is updated locally at the client computer 120 and/or remotely at the MR system server 160. Using the example of a subject 150 that has Parkinson's disease, a side effect of certain Parkinson's drugs may be involuntary movements called dyskinesias. Therefore, an example of results that may be logged in treatment data 137 may be observations as to the amount of time from beginning of treatment to the onset of dyskinesias, which is an indication as to the amount of time that it has taken for the substance 152 to enter the subject's body systems. Other observable effects of the MR treatment after the substance 152 that has been administered to the subject's body systems may be a reduction in off time of the drug, a reduction in tremors, and a reduction in joint stiffness.

[5] = tested on: patients with prostate problems, such as an enlarged prostate; assay: Case report: enlarged prostate drugs combined with MR treatment; assay type: in vivo, human; conditions: for PSA count, last measurement before MR treatment: person, enlarged prostate for fifteen years, taking the drugs; for PSA count after eighteen months of treatment / prostate size after eighteen months of treatment: same subject, three MR treatments per week
Experimental: In one example, a person had been diagnosed with an enlarged prostate for fifteen years and their PSA count was rising (the last measurement was 2.35). The subject was taking the drugs Avodart and Flomax. The subject began a series of three treatments per week for […], and continuing on an ongoing basis.
In providing MR treatment to a subject with prostate problems, an amplitude of about 0.01 μG to about 0.4 μG, with a frequency of about 0.2799 Hz to about 11.197 Hz may be used.

[6] = tested on: osteoarthritis patients; conditions: person
Source text: In one example, a person suffered from back pain due to degenerative disk disease in their low back and sciatica. […] The subject was resonated approximately three times per week for more than one year.
In another example, a person experienced arthritis pain in a number of joints, including their hips, hands, and shoulders. The subject also suffered from sciatica in their hips and legs. The subject was taking Celebrex. The subject was resonated at least three times per week for one to two hours per session.
In a further example, a person experienced osteoarthritis pain and stiffness in their hands and finger joints. […] The subject was resonated twice for one-half hour per treatment. The subject was asked to rate their pain on a scale of zero (feels great) to ten (feels terrible) before and after treatment.
Alternatively, an amplitude of about 0.01 μG to about 0.46 μG, with a frequency of about 0.2799 Hz to about 12.8765 Hz may be used.

[7] = same subject, thirteen MR treatments within a two-month period

With CC(C)C[C@H](CN)CC(=O)O [Lyrica] the “pain level after treatment, first series” value ([1]; in vivo) was 0.5.
With CCC(=O)O[C@]1(C(=O)SCF)[C@H](C)C[C@H]2[C@@H]3C[C@H](F)C4=CC(=O)C=C[C@]4(C)[C@@]3(F)[C@@H](O)C[C@@]21C [Flonase] the “pain level after treatment, first series” value [1, 7] was 0.5.
For CC1(C)O[C@@H]2[C@@H](CO[C@@]3(COS(N)(=O)=O)OC(C)(C)O[C@@H]23)O1 [Topomax], the results on migraines [2] was “decreased frequency and duration of migraines”, the “pain level before being resonated” value [2] was “nine” and the “reduction in pain level” value [2] was 50%. The “pain level after treatment” value [2] was “two”.
NS(=O)(=O)c1cc2c(cc1Cl)NCNS2(=O)=O [HCTZ] was tested, and the “pre-treatment pain level, first series” value ([1]; person, fibromyalgia, back pain, on the listed drugs, before MR) was 4, the “initial pain level, second series” value ([1]; same subject, approx. two months after first series, before second regimen) was 4 and the “pain level after treatment, first series” value [1, 7] was 0.5.
N[C@@H](Cc1ccc(O)c(O)c1)C(=O)O [Levodopa] was tested, and the “time from consuming Levodopa to dyskinesias” value ([3]; Example 1, Parkinson's patient, no magnetic resonance) was “about 38 minutes”, the “time from consuming Levodopa to dyskinesias” value ([3]; Example 1, same Parkinson's patient, substantially the same dosage, then receives magnetic resonance) was “about 22 minutes” and the “absorption rate and efficacy of Levodopa on resonating the patient” value ([3]; Parkinson's patient resonated after consuming Levodopa) was “improved the absorption rate of Levodopa”. The “% Improved” value ([3]; Record # 1265: onset of dyskinesias, Levodopa 25 mg) was 42%, the “Baseline Onset of Dyskinesias” value ([3]; Record # 1265: subject A-84, Parkinson's, Levodopa 25 mg ingested) was “Onset of Dyskinesias 38 mins” and the “MR Result Onset of Dyskinesias” value ([3]; Record # 1265: subject A-84, Levodopa 25 mg ingested, 0.0667 microgauss, 2.0 Hz, square, 60 mins) was “Onset of Dyskinesias 22 mins”. The “% Improved” value ([3]; Record # 7508: onset of dyskinesias, Levodopa 50 mg) was 37%, the “Baseline Onset of Dyskinesias” value ([3]; Record # 7508: subject W-65, Parkinson's, Levodopa 50 mg ingested) was “Onset of Dyskinesias 43 mins” and the “MR Result Onset of Dyskinesias” value ([3]; Record # 7508: subject W-65, Levodopa 50 mg ingested, 0.0697 microgauss, 1.9 Hz, sinusoidal, 80 mins) was “Onset of Dyskinesias 27 mins”. For the same compound, the “% Improved” value ([4]; Record # 4752: average off time, Levodopa 50 mg) was 17%, the “Baseline Average off time” value ([4]; Record # 4752: subject W-65, Parkinson's, Levodopa 50 mg ingested) was “Average off time 6 hours” and the “MR Result Average off time” value ([4]; Record # 4752: subject W-65, Levodopa 50 mg ingested, MR partial immersion (4′), 0.0697 microgauss, 1.9 Hz, sinusoidal, 90 mins) was “Average off time 5 hours”. For the same compound, the “% Improved” value ([4]; Record # 5942: average off time, Levodopa 25 mg) was 33%, the “Baseline Average off time” value ([4]; Record # 5942: subject AA-35, Parkinson's, Levodopa 25 mg ingested) was “Average off time 6 hours” and the “MR Result Average off time” value ([4]; Record # 5942: subject AA-35, Levodopa 25 mg ingested, MR partial immersion (22″), 0.0717 microgauss, 1.8 Hz, triangle, 70 mins) was “Average off time 4 hours”.
C[C@]12C=CC(=O)N[C@@H]1CC[C@@H]1[C@@H]2CC[C@]2(C)[C@@H](C(=O)Nc3cc(C(F)(F)F)ccc3C(F)(F)F)CC[C@@H]12 [Avodart] was tested, and the “PSA count, last measurement before MR treatment” value [5] was 2.35, the “PSA count after eighteen months of treatment” value [5] was 0.95 and the “prostate size after eighteen months of treatment” value [5] was “no longer enlarged”.
In the case of COc1ccc2cc([C@H](C)C(=O)O)ccc2c1 [Naproxen], the “results of continuing treatment” value ([6]; back pain (degenerative disk disease, sciatica), taking the drugs, resonated approx. three times per week for more than one year) is reported as “significantly less pain, an improved range of motion, and improved sleep”, the “pain level before treatment” value ([1]; Person, fibromyalgia, took Naproxen (Aleve)) is reported as “six” and the “initial pain levels before treatments” value ([1]; person, fibromyalgia, taking Naproxen (Aleve), depending on the area of the body) is reported as “three to seven”. For the same compound, the pain after treatment ([1]; same subject, daily (when possible) MR treatments for approximately one year) was “total elimination of pain” and the “pain level after completing treatment” value ([1]; same subject, seven consecutive days of 1 to 1.5 hour MR treatments) was “zero to one”.
CN1CC[C@]23c4c5ccc(O)c4O[C@H]2[C@@H](O)C=C[C@H]3[C@H]1C5 [Morphine] was tested, and the “pain level after treatment, first series” value ([1]; in vivo) was 0.5.
For CCN(CC)CC(=O)Nc1c(C)cccc1C [lidoderm], the “pain level after treatment, first series” value [1, 7] was 0.5.
In the case of O=C1CN=C(c2ccccc2Cl)c2cc([N+](=O)[O-])ccc2N1 [Clonazepam], the “pain level after treatment, first series” value [1, 7] is reported as 0.5.
For COc1ccccc1OCC(O)COC(N)=O (stereo not drawn) [Robaxin], the “pain level after treatment, first series” value [1, 7] was 0.5.
With CCOc1ccccc1OCCN[C@H](C)Cc1ccc(OC)c(S(N)(=O)=O)c1 [Flomax] the “PSA count, last measurement before MR treatment” value [5] was 2.35, the “PSA count after eighteen months of treatment” value [5] was 0.95 and the “prostate size after eighteen months of treatment” value [5] was “no longer enlarged”.
For Cc1ccc(-c2cc(C(F)(F)F)nn2-c2ccc(S(N)(=O)=O)cc2)cc1 [Celebrex], the results of treatment ([6]; arthritis pain and sciatica, taking Celebrex, resonated at least three times per week, one to two hours per session) was “a reduction in dosage and frequency of taking Celebrex, decreased pain, improved mobility, and improved sleep”.
With CNS(=O)(=O)Cc1ccc2[nH]cc(CCN(C)C)c2c1 [Immitrex] the results on migraines [2] was “decreased frequency and duration of migraines”, the “pain level before being resonated” value [2] was “nine” and the “reduction in pain level” value [2] was 50%. For the same compound, the “pain level after treatment” value [2] was “two”.
With CCOC(=O)N1CCC(=C2c3ccc(Cl)cc3CCc3cccnc32)CC1 [Claritin] the “pain level after treatment, first series” value [1, 7] was 0.5.
